Data from patent US10449202B2, “Rationale-based design of a targeted therapy for cancer” (priority 2013, dated 2019).
pIC50: −log10 of the molar value.

Key:
SRC-3 [1] = experiment: Western blot of SRC-3 protein expression in prostate cancer cell lines; type: cell-based; conditions: 1 μM, 6 hours
Text: (§1) Ponceau S was used to stain proteins.

SRC-3 [2] = experiment: Subcellular fractionation and Western blot of SRC-3 in nucleus and cytoplasm; type: cell-based; conditions: 1000 nM, 6 hours
Text: as §1
(§2) Nuclear and cytosolic fractions were obtained and analyzed by western blot. Antibodies used include SRC-3, PRK, tubulin, histone-H3, and actin.

PRK-1 = experiment: Subcellular fractionation and Western blot of PRK-1 in nucleus and cytoplasm; type: cell-based; conditions: 6 hours
Text: as §1, §2

prostate cancer = conditions: Phase 2 human clinical trial, prostate cancer patients; cited from earlier work
PKC = conditions: read-out: IC50 PKC; cited from earlier work
gastric cancer cells = experiment: MTT cell viability assay, gastric cancer cells; conditions: 10-3000 nM, 48 hours, AGS, MKN-45, Hs746T, NCI-N87
prostate cancer cells = experiment: MTT cell viability assay, prostate cancer cells; conditions: 10-3000 nM, 48 hours, PC3, DU145, LNCaP
PRK1 = experiment: Western blot of PRK1 protein expression in prostate cancer cell lines; conditions: LNCaP, PC3 and DU145 cells (any of the tested cell lines), 1 μM, 6 hours
DEK = experiment: Western blot of DEK protein levels in prostate, breast and gastric cancer cells, 24 hours, two doses; conditions: gastric cancer cells (MKN-45 and NCI-N87)
SRC3 = experiment: Western blot of SRC3 protein levels in prostate, breast and gastric cancer cells, 24 hours, two doses; conditions: for SRC3 protein levels: two doses

Q: For `C[C@]12O[C@H](C[C@]1(O)CO)n1c3ccccc3c3c4c(c5c6ccccc6n2c5c31)CNC4=O` [lestaurtinib], which “SRC-3 protein expression level” value (SRC-3 [1]; DU145 cells) is on record?
A: not significantly altered

Q: What about the “SRC-3 protein expression level” value (SRC-3 [1]; LNCaP cells) of the same compound?
A: profound decrease

Q: And the “SRC-3 protein expression level” value (SRC-3 [1]; PC3 cells)?
A: not significantly altered

Q: And the “reduction in cytoplasmic SRC-3, LNCaP compared to PC3 or DU145” value (SRC-3 [2]; LNCaP cells)?
A: much more dramatic

Q: And the “nuclear SRC-3 protein levels” value (SRC-3 [2]; LNCaP, DU145 or PC3 cells)?
A: did not caused a reduction

Q: What about the “SRC-3 protein in the cytoplasm” value (SRC-3 [2]; all three cell lines (LNCaP, PC3, DU145)) of the same compound?
A: reduced

Q: And the “cytoplasmic PRK-1 levels” value (PRK-1; LNCaP, PC3, DU145, 1000 nM)?
A: unaltered

Q: And the “nuclear PRK-1 protein levels” value (PRK-1; all three cell lines (LNCaP, PC3, DU145), 1000 nM)?
A: increased

Q: What about the “primary clinical endpoint of reduced PSA levels” value (prostate cancer) of the same compound?
A: failed to achieve the primary clinical endpoint of reduced PSA levels

Q: And the pIC50 (PKC)?
A: 6.65

Q: What about the “viability of gastric cancer cells” value (gastric cancer cells) of the same compound?
A: effective in reducing viability

Q: And the “viability of prostate cancer cells” value (prostate cancer cells)?
A: effective in reducing viability

Q: What about the “PRK1 protein expression level” value (PRK1) of the same compound?
A: not significantly altered

Q: What about the DEK levels (DEK) of the same compound?
A: did not change

Q: And the SRC3 protein levels (SRC3; MCF7 breast cancer cells)?
A: most profound dose-dependent decrease

Q: What about the SRC3 expression levels (SRC3; MKN-45 gastric cancer cells, higher dose) of the same compound?
A: showed a decrease

Q: And the SRC3 protein levels (SRC3; ZR75-1 breast cancer cells)?
A: no obvious change
